Results taken from patent US20190105409A9, “IMAGING AGENTS WITH IMPROVED PHARMACOKINETIC PROFILES” (GE HEALTHCARE AS, priority 2004, published 2019).

Test: Biodistribution of radiolabelled compounds in a Lewis Lung mouse Carcinoma model
Format: in vivo
Settings: for % ID/g kidney / % ID/g liver: tail vein injection of radiolabelled compound, excretion profile monitored at 5, 30, 60 and 120 minutes (time point not given)
Description: Biodistribution studies were carried out in a Lewis Lung mouse Carcinoma model as described in Bae et al, Drugs Exp Clin Res, 2003; 29 (1): 15-23. Following tail vein injection of the compounds, e the excretion profile was monitored at 5, 30, 60 and 120 minutes.

| % ID/g kidney [% ID/g] | % ID/g liver [% ID/g] | excretion route / biodistribution in comparison to compounds 2 and 3 (tail vein injection, conclusion from Table 1) | Structure (SMILES) |
| --- | --- | --- | --- |
| 7 | 71 |  | O=C(CCN(C1(C(=O)NO)CCCC1)S(=O)(=O)c1ccc(Oc2ccc(F)cc2)cc1)NCCc1ccc(O)c(I)c1 [Compound 2] |
| 20 | 61 |  | NC(=O)C(Cc1ccc(O)c(I)c1)NC(=O)OC(=O)NCCOCCOCCOCCNC(=O)CCN(C1(C(=O)NO)CCCC1)S(=O)(=O)c1ccc(Oc2ccc(F)cc2)cc1 (stereo not shown) [Compound 3] |
| 70 | 20 | preferably excreted via the renal system | NC(=O)C(Cc1ccc(O)c(I)c1)NC(=O)CCOCCOCCOCCOCCOCCOCCOCCOCCOCCOCCOCCOCCNC(=O)CCOCCOCCOCCOCCOCCOCCOCCOCCOCCOCCOCCOCCNC(=O)CCN(C1(C(=O)NO)CCCC1)S(=O)(=O)c1ccc(Oc2ccc(F)cc2)cc1 (stereo not shown) [Compound 4] |
